Experimental data as given in patent US7238775B2, “Receptor(SSTR4)-selective somatostatin analogs” (The Salk Institute for Biological Studies, priority 2002, dated 2007).
Values joined by “and” are separate entries in the source; they are usually repeats but may differ in a detail not shown here. Identical values can stand only once. Each block holds one compound with its values, some of them ahead of it. Numbered stars: 1 amine (or outer) side, 2 acyl side, 3 side chain; on linkers, the order of the positions; unused ones are H or OH. Bridge positions count the residues as written; N and C are the ends. Square brackets hold non-standard residues; d marks the D form. Peptide text beside a SMILES is read from it. X1 = C[C@H](c1ccc2ccccc2c1)[C@H](N[*:1])C(=O)[*:2]; Phe(4-NH2) = Nc1ccc(C[C@H](N)C(=O)O)cc1; 2Nal = N[C@@H](Cc1ccc2ccccc2c1)C(=O)O

Tests used:
Assay in all cases: Displacement of 125I-[Leu8,D-Trp22,Tyr25]SRIF-28 from cloned receptor, membrane pellet autoradiography
Assay type in all cases: binding
[1] = target: T1, hSSTR1 (Homo sapiens, UniProt P30872)
T1 construct: expressed in transfected cells; host or cells: CHO-K1 cells and CCL39 cells
T1 sequence (P30872 whole entry): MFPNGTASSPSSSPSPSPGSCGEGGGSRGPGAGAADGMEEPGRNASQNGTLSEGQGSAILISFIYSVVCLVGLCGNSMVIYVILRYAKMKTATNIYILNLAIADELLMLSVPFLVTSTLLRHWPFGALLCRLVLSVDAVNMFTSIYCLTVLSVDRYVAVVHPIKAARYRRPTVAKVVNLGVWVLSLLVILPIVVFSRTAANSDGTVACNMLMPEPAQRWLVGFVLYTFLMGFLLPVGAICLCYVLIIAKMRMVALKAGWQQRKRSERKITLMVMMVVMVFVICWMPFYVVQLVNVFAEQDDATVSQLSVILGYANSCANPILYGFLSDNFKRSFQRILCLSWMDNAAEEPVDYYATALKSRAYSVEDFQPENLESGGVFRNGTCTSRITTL
Procedure: (§1) In vitro Bioassay: The effects of the various somatostatin analogs are tested in vitro for their ability to bind to isolated cloned receptors expressed on CHO-K1 cells and CCL39 cells. CHO-K1 cells are grown in Ham's F-12 medium, and CCL39 cells are grown in Dulbecco's modified Eagle's medium/Ham's F-12(1:1) mix, supplemented with 10% fetal bovine serum, 100 U/ml penicillin and 100 μg/ml streptomycin, in humidified air containing 5% CO2 at 37° C.
(§2) Cells are washed twice with and scraped into ice-cold 0.05 M Tris-HCl (pH 7.4), collected by centrifugation, and homogenized using a rotor/stator/system in the same buffer. After centrifugation at 120 g for 5 min at 4° C., the supernatant is collected and centrifuged again at 48,000 g for 30 min at 4° C. The resulting pellet is resuspended in ice-cold Tris buffer, transferred into a microfuge tube, and centrifuged at 20,000 g for 15 min at 4° C. After withdrawal of the supernatant, the membrane pellet is stored at −80° C.
Receptor autoradiography is performed on 20 μm thick cryostat sections of the membrane pellets, mounted on microscope slides, and then stored at −20° C. […] […] […] IC50 values are calculated after quantification of the data using a computer-assisted image processing system as known in this art.
(§3) The numbers in parentheses indicate the number of times the particular binding test was carried out.

[2] = target: T2, hSSTR2 (Homo sapiens, UniProt P30874)
T2 construct: expressed in transfected cells; host or cells: CHO-K1 cells and CCL39 cells
T2 sequence (P30874 whole entry): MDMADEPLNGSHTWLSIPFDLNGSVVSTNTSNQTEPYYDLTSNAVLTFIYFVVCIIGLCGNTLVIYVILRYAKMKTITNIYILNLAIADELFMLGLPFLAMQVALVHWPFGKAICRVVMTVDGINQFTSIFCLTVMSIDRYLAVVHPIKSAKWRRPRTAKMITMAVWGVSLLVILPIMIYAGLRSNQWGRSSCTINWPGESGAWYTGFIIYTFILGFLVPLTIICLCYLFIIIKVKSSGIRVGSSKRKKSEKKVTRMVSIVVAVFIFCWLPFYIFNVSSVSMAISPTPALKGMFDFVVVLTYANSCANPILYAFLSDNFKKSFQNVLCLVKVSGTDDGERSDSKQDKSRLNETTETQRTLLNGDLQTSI
Procedure: as §1, §2
(§4) Receptor autoradiography is performed on 20 μm thick cryostat sections of the membrane pellets, mounted on microscope slides, and then stored at −20° C. […] Increasing concentrations of the unlabeled peptide are used ranging from 0.1-1000 nM. […] IC50 values are calculated after quantification of the data using a computer-assisted image processing system as known in this art.
as §3

[3] = target: T3, hSSTR3 (Homo sapiens, UniProt P32745)
T3 construct: expressed in transfected cells; host or cells: CHO-K1 cells and CCL39 cells
T3 sequence (P32745 whole entry): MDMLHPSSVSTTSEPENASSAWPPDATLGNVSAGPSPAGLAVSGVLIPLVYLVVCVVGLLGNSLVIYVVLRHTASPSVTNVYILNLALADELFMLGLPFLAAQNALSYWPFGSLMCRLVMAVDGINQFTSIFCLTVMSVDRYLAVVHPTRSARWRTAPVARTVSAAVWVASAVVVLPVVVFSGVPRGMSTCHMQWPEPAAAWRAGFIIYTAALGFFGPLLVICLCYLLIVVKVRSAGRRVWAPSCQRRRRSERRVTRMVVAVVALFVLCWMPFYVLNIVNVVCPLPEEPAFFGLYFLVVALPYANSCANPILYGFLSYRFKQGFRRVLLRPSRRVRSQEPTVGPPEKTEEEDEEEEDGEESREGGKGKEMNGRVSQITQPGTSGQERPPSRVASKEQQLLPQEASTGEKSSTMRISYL
Procedure: as §1, §2, §4, §3

[4] = target: T4, hSSTR4 (Homo sapiens, UniProt P31391); settings: for IC50: inhibition of 125I-SRIF-28 radioligand binding, cloned human receptor
T4 construct: expressed in transfected cells; host or cells: CHO-K1 cells and CCL39 cells
T4 sequence (P31391 whole entry): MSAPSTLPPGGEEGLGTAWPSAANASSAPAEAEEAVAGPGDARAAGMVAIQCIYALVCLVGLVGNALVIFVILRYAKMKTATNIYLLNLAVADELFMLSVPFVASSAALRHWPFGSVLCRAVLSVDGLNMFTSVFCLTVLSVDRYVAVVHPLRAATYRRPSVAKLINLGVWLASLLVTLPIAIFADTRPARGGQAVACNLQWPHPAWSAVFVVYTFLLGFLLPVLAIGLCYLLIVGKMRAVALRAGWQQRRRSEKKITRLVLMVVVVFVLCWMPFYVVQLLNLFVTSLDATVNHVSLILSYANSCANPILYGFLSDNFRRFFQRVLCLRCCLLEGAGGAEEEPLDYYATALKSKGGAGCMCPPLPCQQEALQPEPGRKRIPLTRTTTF
Procedure: as §1, §2, §4, §3

[5] = target: T5, hSSTR5 (Homo sapiens, UniProt P35346)
T5 construct: expressed in transfected cells; host or cells: CHO-K1 cells and CCL39 cells
T5 sequence (P35346 whole entry): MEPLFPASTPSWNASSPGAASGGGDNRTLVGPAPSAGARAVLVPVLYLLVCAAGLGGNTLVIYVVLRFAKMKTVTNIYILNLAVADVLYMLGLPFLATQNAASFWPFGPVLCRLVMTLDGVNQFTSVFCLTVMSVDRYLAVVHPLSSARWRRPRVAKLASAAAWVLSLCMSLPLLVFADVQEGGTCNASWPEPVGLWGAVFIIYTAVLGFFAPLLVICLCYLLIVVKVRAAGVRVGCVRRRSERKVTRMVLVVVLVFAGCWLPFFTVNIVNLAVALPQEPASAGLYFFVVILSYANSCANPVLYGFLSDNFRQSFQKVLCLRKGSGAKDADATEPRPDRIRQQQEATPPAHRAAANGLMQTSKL
Procedure: as §1, §2, §4, §3

[6] = inhibition of 125I-SRIF-28 radioligand binding, cloned human receptor

SMILES: C[C@@H](O)[C@@H]1NC(=O)[C@H](CCCCN)NC(=O)[C@H](Cc2c[nH]c3ccccc23)NC(=O)[C@H](Cc2ccc(N)cc2)NC(=O)[C@H](Cc2ccccc2)NC(=O)[C@@H](N)CSSC[C@@H](C(=O)O)NC(=O)[C@H](Cc2ccccc2)NC1=O [Peptide No. 1, (cyclo)H-Cys-Phe-4Aph-Trp-Lys-Thr-Phe-Cys-OH]
effect on binding of the SRIF-28 radioligand to human SSTR1 ([1]; at 100 nM): minimal effects
effect on binding of the SRIF-28 radioligand to human SSTR2 ([2]; at 100 nM): minimal effects
effect on binding of the SRIF-28 radioligand to SSTR3 ([3]; at 100 nM): very minimal effect
selectivity in binding to SSTR4 compared with the other 4 receptors (in words) [4]: selectively bound to SSTR4
IC50 [4]: ~1.2 nM and 1.2 nM
effect on binding of the SRIF-28 radioligand to SSTR5 ([5]; at 100 nM): very minimal effect
IC50 [5, 6]: 1000 nM

IC50 [2, 6]: > 1000 nM
SMILES: C[C@@H](O)[C@@H]1NC(=O)[C@H](CCCCN)NC(=O)[C@H](Cc2ccc3ccccc3c2)NC(=O)[C@H](Cc2ccc(N)cc2)NC(=O)[C@H](Cc2ccccc2)NC(=O)[C@@H](N)CSSC[C@@H](C(=O)O)NC(=O)[C@H](Cc2ccccc2)NC1=O [Peptide No. 5, (cyclo)H-Cys-Phe-4Aph-2Nal-Lys-Thr-Phe-Cys-OH] (H-CF[Phe(4-NH2)][2Nal]KTFC-OH; disulfide 1-8)

concentration below which it does not bind to human SSTR1 [1]: ≥ 750 nM
concentration below which it does not bind to human SSTR2 [2]: ≥ 750 nM
concentration below which it does not bind to human SSTR3 [3]: ≥ 750 nM
selectivity in binding to SSTR4 compared with the other 4 receptors (in words) [4]: likewise selective
IC50 [4]: ~0.84 nM and 0.84 nM
concentration below which it does not bind to human SSTR5 [5]: ≥ 630 nM
SMILES: C[C@@H]1NC(=O)[C@H](Cc2ccccc2)NC(=O)[C@@H](N)CSSC[C@@H](C(=O)O)NC(=O)[C@H](Cc2ccccc2)NC(=O)[C@H]([C@@H](C)O)NC(=O)[C@H](CCCCN)NC(=O)[C@H](Cc2c[nH]c3ccccc23)NC1=O [Peptide No. 12] (H-CFAWKTFC-OH; disulfide 1-8)

IC50 [1, 6]: > 1000 nM
selectivity for SSTR4 over the closest other receptor [4]: ~100 times
selectivity in binding to SSTR4 compared with the other 4 receptors (in words) [4]: show selectivity for binding to SSTR4
SMILES: C[C@H](c1ccc2ccccc2c1)[C@@H]1NC(=O)[C@H](Cc2ccc(O)cc2)NC(=O)[C@H](Cc2ccccc2)NC(=O)[C@@H](N)CSSC[C@@H](C(=O)O)NC(=O)[C@H](Cc2ccccc2)NC(=O)[C@H]([C@@H](C)O)NC(=O)[C@H](CCCCN)NC1=O [Peptide No. 17A, (cyclo)H-Cys-Phe-Tyr-threo-(2S,3R)C^βMe-2Nal-Lys-Thr-Phe-Cys-OH] (H-CFY[X1]KTFC-OH; disulfide 1-8)
